Results from patent US11414439B2, “Modulators of cystic fibrosis transmembrane conductance regulator, pharmaceutical compositions, methods of treatment, and process for making the modulator” (Vertex Pharmaceuticals Incorporated, priority 2018, dated 2022).

System: CFTR
Assay: CFTR modulating activity (Table 6; one or more of the disclosed assays, e.g. enteroid membrane potential dye assay); also: key: Active; ND-not detected
Type: cell-based, human
Settings: generated using one or more of the assays disclosed herein
From the text: Human intestinal epithelial enteroid cells may be obtained from the Hubrecht Institute for Developmental Biology and Stem Cell Research, Utrecht, The Netherlands and expanded in T-Flasks as previously described (Dekkers J F, Wiegerinck C L, de Jonge H R, Bronsveld I, Janssens H M, de Winter-de Groot K M, Brandsma A M, de Jong N W M, Bijvelds M J C, Scholte B J, Nieuwenhuis E E S, van den Brink S, Clevers H, van der Ent C K, Middendorp S and M Beekman J M. A functional CFTR assay using primary cystic fibrosis intestinal organoids. Nat Med. 2013 July; 19(7):939-45).
Cells may be recovered in cell recovery solution, collected by centrifugation at 650 rpm for 5 min at 4° C., resuspended in TryPLE and incubated for 5 min at 37° C. Cells can then be collected by centrifugation at 650 rpm for 5 min at 4° C. and resuspended in IEMM containing 10 μM ROCK inhibitor (RI). The cell suspension is then passed through a 40 μm cell strainer and resuspended at 1×10^6 cells/mL in IEMM containing 10 μM RI. Cells may be seeded at 5000 cells/well into multi-well plates and incubated for overnight at 37° C., 95% humidity and 5% CO2 prior to assay.
Enteroid cells may be incubated with test compound in IEMM for 18-24 hours at 37° C., 95% humidity and 5% CO2. Following compound incubations, a membrane potential dye assay can be employed using a FLIPR Tetra to directly measure the potency and efficacy of the test compound on CFTR-mediated chloride transport following acute addition of 10 μM forskolin and 300 nM N-[2,4-bis(1,1-dimethylethyl)-5-hydroxyphenyl]-1,4-dihydro-4-oxoquinoline-3-carboxamide. Briefly, cells are washed 5 times in Bath 1 Buffer. Bath 1 Dye Solution is added and the cells are incubated for 25 min at room temperature. Following dye incubation, cells are washed 3 times in Chloride Free Dye Solution. Chloride transport is initiated by addition of Chloride Free Dye Stimulation Solution and the fluorescence signal is read for 15 min. The CFTR-mediated chloride transport for each condition may be determined from the AUC of the fluorescence response to acute forskolin and 300 nM N-[2,4-bis(1,1-dimethylethyl)-5-hydroxyphenyl]-1,4-dihydro-4-oxoquinoline-3-carboxamide stimulation.
Chloride transport may be expressed as a percentage of the chloride transport following treatment with one or more reference standards or positive controls. Suitable reference standards/controls include one or more of Compound II, Compound III, Compound IV, and Compound A. Compound A is:
Table 6 confirms CFTR modulating activity for representative compounds of the invention generated using one or more of the assays disclosed herein.

Structure (SMILES)	CFTR Modulating Activity
Cc1nn(C)cc1S(=O)(=O)NC(=O)c1ccc(-n2ccc(OCC(C)(C)C(F)(F)F)n2)nc1N1CC([Si](C)(C)C)CC1(C)C (single isomer, unassigned) [(2-8) Enantiomer 2]	Active
Cc1nn(C)cc1S(=O)(=O)NC(=O)c1ccc(-n2ccc(OCC(C)(C)C(F)(F)F)n2)nc1N1C[C@@H](C)CC1(C)[Si](C)(C)C (single isomer, unassigned) [(2-9) Stereoisomer 1]	Active
Cc1nn(C)cc1S(=O)(=O)NC(=O)c1ccc(-n2ccc([Si](C)(C)CCC(C)(C)C)n2)nc1N1C[C@@H](C)CC1(C)C [Compound (2-1), 6-[3-[3,3-Dimethylbutyl(dimethyl)silyl]pyrazol-1-yl]-N-(1,3-dimethylpyrazol-4-yl)sulfonyl-2-[(4S)-2,2,4-trimethylpyrrolidin-1-yl]pyridine-3-carboxamide]	Active
Cc1nn(C)cc1S(=O)(=O)NC(=O)c1ccc(-n2ccc(OCCC3([Si](C)(C)C)CC3)n2)nc1N1C[C@@H](C)CC1(C)C [Compound (2-2), N-(1,3-dimethylpyrazol-4-yl)sulfonyl-2-[(4S)-2,2,4-trimethylpyrrolidin-1-yl]-6-[3-[2-(1-trimethylsilylcyclopropyl)ethoxy]pyrazol-1-yl]pyridine-3-carboxamide]	Active
Cc1nn(C)cc1S(=O)(=O)NC(=O)c1ccc(-n2ccc(OC[Si](C)(C)C)n2)nc1N1C[C@@H](C)CC1(C)C [Compound (2-3), N-(1,3-Dimethylpyrazol-4-yl)sulfonyl-2-[(4S)-2,2,4-trimethylpyrrolidin-1-yl]-6-[3-(trimethylsilylmethoxy)pyrazol-1-yl]pyridine-3-carboxamide]	Active
Cc1nn(C)cc1S(=O)(=O)NC(=O)c1ccc(-n2ccc(OCC[Si](C)(C)C)n2)nc1N1C[C@@H](C)CC1(C)C [Compound (2-4), N-(1,3-dimethylpyrazol-4-yl)sulfonyl-2-[(4S)-2,2,4-trimethylpyrrolidin-1-yl]-6-[3-(2-trimethylsilylethoxy)pyrazol-1-yl]pyridine-3-carboxamide]	Active
Cc1nn(C)cc1S(=O)(=O)NC(=O)c1ccc([Si](C)(C)C)nc1N1C[C@@H](C)CC1(C)C [Compound (2-5), N-(1,3-dimethylpyrazol-4-yl)sulfonyl-2-[(4S)-2,2,4-trimethylpyrrolidin-1-yl]-6-trimethylsilyl-pyridine-3-carboxamide]	Active
Cc1nn(C)cc1S(=O)(=O)NC(=O)c1ccc(-n2ccc(OCCC[Si](C)(C)C)n2)nc1N1C[C@@H](C)CC1(C)C [Compound (2-6), N-(1,3-Dimethylpyrazol-4-yl)sulfonyl-2-[(4S)-2,2,4-trimethylpyrrolidin-1-yl]-6-[3-(3-trimethylsilylpropoxy)pyrazol-1-yl]pyridine-3-carboxamide]	Active
Cc1nn(C)cc1S(=O)(=O)NC(=O)c1ccc(-n2ccc([Si](C)(C)CCC(F)(F)F)n2)nc1N1C[C@@H](C)CC1(C)C [Compound (2-7), N-(1,3-Dimethylpyrazol-4-yl)sulfonyl-6-[3-[dimethyl(3,3,3-trifluoropropyl)silyl]pyrazol-1-yl]-2-[(4S)-2,2,4-trimethylpyrrolidin-1-yl]pyridine-3-carboxamide]	Active
Cc1nn(C)cc1S(=O)(=O)NC(=O)c1ccc(-n2ccc([Si](C)(C)C(C)(C)C)n2)nc1N1C[C@@H](C)CC1(C)C [Compound (2-10), 6-[3-[tert-Butyl(dimethyl)silyl]pyrazol-1-yl]-N-(1,3-dimethylpyrazol-4-yl)sulfonyl-2-[(4S)-2,2,4-trimethylpyrrolidin-1-yl]pyridine-3-carboxamide]	Active
Cc1nn(C)cc1S(=O)(=O)NC(=O)c1ccc(-n2ccc(OC[Si](C)(C)C(C)(C)C)n2)nc1N1C[C@@H](C)CC1(C)C [Compound (2-11), 6-[3-[[tert-Butyl(dimethyl)silyl]methoxy]pyrazol-1-yl]-N-(1,3-dimethylpyrazol-4-yl)sulfonyl-2-[(4S)-2,2,4-trimethylpyrrolidin-1-yl]pyridine-3-carboxamide]	Active
Cc1nn(C)cc1S(=O)(=O)NC(=O)c1ccc(-n2ccc([Si](C)(C)C)n2)nc1N1C[C@@H](C)CC1(C)C [Compound (2-12), N-(1,3-Dimethylpyrazol-4-yl)sulfonyl-2-[(4S)-2,2,4-trimethylpyrrolidin-1-yl]-6-(3-trimethylsilylpyrazol-1-yl)pyridine-3-carboxamide]	Active
